Test results published in patent US6313127A, “Heterocyclic compounds useful as pharmaceutical agents” (Zeneca Limited, priority 1996, dated 2001).

Key:
oxido-squalene cyclase [1] = experiment: In vivo test to measure inhibition of oxido-squalene cyclase / cholesterol biosynthesis in the rat; conditions: 2 mg/kg, oral, female rats
Description: (b) In vivo Test to Measure Inhibition of Oxido-Squalene Cyclase
The ability of a compound to inhibit oxido-squalene cyclase and/or inhibit cholesterol biosynthesis may be assessed by a routine laboratory procedure carried out in the rat. The test involves administration of the compound to rats on a reversed lighting regimen. Female rats (35-55 g) are housed in reverse lighting conditions (red light from 0200 h-1400 h) for a period of about 2 weeks prior to test. Animals are allowed free access to chow and drinking water throughout this period. At test, animals should weigh 100-140 g. The rats are dosed orally, with the compound (typically 10-50 mg/kg) formulated in a polyethylene glycol/hydroxypropylmethyl cellulose mix. After 1 hour the rats are given […] sodium mevalonate (15 μCi/kg) intraperitoneally. Two hours after administration of the compound the rats are terminated and a piece of liver removed and weighed. The tissue is saponified at 80° C. for 2 hours in an ethaniolic/potassium hydroxide solution (80% w/v aqueous KOH diluted 1:10 with ethanol). Water (2 ml) is added and the mixture extracted with iso-hexane (2×5 ml). The organic extracts are combined, evaporated to dryness under a stream of nitrogen and the residue is dissolved in a mixture of acetonitrile/iso-propanol (300 μl). […] The radio-label content of each fraction is assessed using a radio chemical flow detector. […]

oxido-squalene cyclase [2] = experiment: In vitro test to measure inhibition of microsomal oxido-squalene cyclase; type: biochemical; conditions: 1 μM; rat liver microsomes
Description: (a) In vitro Test to Measure Inhibition of Oxido-squalene Cyclase
This test measures the inhibition of microsomal oxido-squalene cyclase in vitro by compounds at set concentrations in the incubation medium.
Microsomes are prepared from rat liver according to methods known in the art, for example, the method described in published European Patent Application No 324,421 and stored in liquid nitrogen prior to assay. Assay vials are kept at 37° C. throughout the incubation. The microsomes typically contain 15-20 mg of protein per ml of microsomes. For assay, 1 ml of microsomes are diluted by the addition of 722 μl of 50 mM phosphate buffer pH 7.4.
Phosphate buffered Tween 80 (polyoxyethylene sorbitan […]) is prepared by adding 0.1 g Tween 80 to 100 ml of 50 mM phosphate buffer.
A stock solution of oxido-squalene is made up as a solution in ethanol (0.65 mg.ml^-1). 18 μl of radio-labelled oxido-squalene (1 μCi.ml^-1) is evaporated to dryness under a stream of nitrogen and redissolved in 1 ml of ethanol and 1 ml of the stock solution of oxido-squalene is added.
The test compound is dissolved in dimethyl sulphoxide to give a 10^-4 M stock solution. […]
The samples are then placed in a water bath at 80° C. for 2 hours to saponify. […] Reaction rate is measured as the conversion of oxido-squalene to lanosterol, and the effects of test compounds are expressed as an inhibition of this process.

Row | inhibition of oxido-squalene cyclase (conversion of oxido-squalene to lanosterol) (oxido-squalene cyclase [2]) [%] | Compound | inhibition of cholesterol biosynthesis (oxido-squalene cyclase [1]) [%]
1 | – | Fc1cc(Br)ccc1CN1CCN(c2ccncc2)CC1 [Example 18, 1-(4-pyridyl)-4-(2-fluoro-4-bromobenzyl)piperazine] | 59
2 | 100 | O=S(=O)(c1ccc(Br)cc1)N1CCN(c2ccncc2)CC1 [Example 25, 1-(4-pyridyl)-4-(4-bromophenylsulphonyl)piperazine] | –
3 | – | N#Cc1ccc(S(=O)(=O)Nc2ccc(N3CCN(c4ccncc4)CC3)cc2)cc1 [Example 27, 1-(4-pyridyl)-4-(4-cyanophenylsulphonamidophenyl)piperazine] | 70
